# Measurements as given in US10844038B2, “1,2-dithiolane compounds useful in neuroprotection, autoimmune and cancer diseases and conditions” (SABILA BIOSCIENCES LLC, priority 2016, dated 2020).
# Tests used:
# CSK = CSK (Homo sapiens (Human), UniProt P41240); experiment: Radioisotope filter binding assay; type: biochemical; conditions: read-out: IC50 Activity Levels Against SRC Family Kinases: CSK
# Procedure, shortened: (§1)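 First, substrate and cofactors are prepared in base buffer (20 mM Hepes pH 7.5, 10 mM MgCl2, 1 mM EGTA). Next, kinase and then compound are added, followed by 20 min at room temperature. Finally, [γ-33P]ATP starts a 2 h reaction, detected by filter binding.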
# FRK = FRK (Homo sapiens (Human), UniProt P42685); experiment: Radioisotope filter binding assay; type: biochemical; conditions: read-out: IC50 Activity Levels Against FRK Family Kinases: FRK
# FRK, sequence (P42685 whole entry): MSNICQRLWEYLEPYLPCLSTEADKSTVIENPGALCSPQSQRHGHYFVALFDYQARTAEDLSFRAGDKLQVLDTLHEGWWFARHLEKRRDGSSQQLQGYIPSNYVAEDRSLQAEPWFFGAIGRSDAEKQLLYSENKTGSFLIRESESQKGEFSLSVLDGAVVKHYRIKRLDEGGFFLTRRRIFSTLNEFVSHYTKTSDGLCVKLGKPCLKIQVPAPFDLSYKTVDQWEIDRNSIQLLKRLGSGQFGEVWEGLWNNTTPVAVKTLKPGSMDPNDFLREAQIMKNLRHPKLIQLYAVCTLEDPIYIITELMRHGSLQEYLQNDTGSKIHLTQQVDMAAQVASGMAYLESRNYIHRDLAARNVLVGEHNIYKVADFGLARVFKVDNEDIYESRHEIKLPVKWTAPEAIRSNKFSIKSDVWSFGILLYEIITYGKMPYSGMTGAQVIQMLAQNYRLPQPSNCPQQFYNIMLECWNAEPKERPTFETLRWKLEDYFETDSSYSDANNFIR
# Procedure, shortened: as §1
# ITK = ITK (Homo sapiens (Human), UniProt Q08881); experiment: Radioisotope filter binding assay; type: biochemical; conditions: read-out: IC50 Activity Levels Against Representative TEC Family Kinases: ITK
# ITK, sequence (Q08881 whole entry): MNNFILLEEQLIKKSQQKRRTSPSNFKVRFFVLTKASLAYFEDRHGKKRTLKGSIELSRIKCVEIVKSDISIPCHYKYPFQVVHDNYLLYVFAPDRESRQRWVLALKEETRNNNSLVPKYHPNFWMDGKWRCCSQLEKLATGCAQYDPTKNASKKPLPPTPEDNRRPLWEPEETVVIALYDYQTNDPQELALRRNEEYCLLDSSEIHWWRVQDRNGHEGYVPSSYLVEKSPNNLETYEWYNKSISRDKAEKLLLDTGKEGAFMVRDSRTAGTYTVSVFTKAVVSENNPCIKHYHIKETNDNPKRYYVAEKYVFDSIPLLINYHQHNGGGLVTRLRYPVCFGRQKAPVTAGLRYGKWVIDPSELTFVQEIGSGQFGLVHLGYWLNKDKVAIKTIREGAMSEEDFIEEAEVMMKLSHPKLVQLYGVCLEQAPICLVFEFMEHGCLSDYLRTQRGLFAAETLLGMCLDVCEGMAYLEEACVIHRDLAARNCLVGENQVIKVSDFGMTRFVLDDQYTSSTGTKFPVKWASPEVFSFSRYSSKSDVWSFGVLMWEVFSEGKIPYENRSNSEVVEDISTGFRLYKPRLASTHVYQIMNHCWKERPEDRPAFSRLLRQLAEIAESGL
# Procedure, shortened: as §1
# SRC = SRC (Homo sapiens (Human), UniProt P12931); experiment: Rabbit reticulocyte lysate assay (KinaseSeeker competition binding); conditions: read-out: IC50 Activity Levels Against SRC Family Kinases: SRC
# SRC, sequence (P12931 whole entry, looked up): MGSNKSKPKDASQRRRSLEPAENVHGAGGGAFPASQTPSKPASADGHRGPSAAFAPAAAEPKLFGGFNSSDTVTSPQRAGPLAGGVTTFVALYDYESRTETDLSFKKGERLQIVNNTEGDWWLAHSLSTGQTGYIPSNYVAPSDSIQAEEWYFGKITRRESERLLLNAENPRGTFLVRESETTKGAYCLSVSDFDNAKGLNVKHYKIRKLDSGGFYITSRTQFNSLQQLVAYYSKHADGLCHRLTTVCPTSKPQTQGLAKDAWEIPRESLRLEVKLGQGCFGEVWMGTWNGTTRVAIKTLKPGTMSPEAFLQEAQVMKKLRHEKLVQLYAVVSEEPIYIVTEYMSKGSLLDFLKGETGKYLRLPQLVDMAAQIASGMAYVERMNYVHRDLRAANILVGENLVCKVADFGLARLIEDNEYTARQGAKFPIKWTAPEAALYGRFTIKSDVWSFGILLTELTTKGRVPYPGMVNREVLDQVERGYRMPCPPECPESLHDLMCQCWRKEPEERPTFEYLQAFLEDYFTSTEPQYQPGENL
# AurA = AurA (Homo sapiens (Human), UniProt O14965); experiment: Radioisotope filter binding assay; type: biochemical; conditions: read-out: IC50 Activity Levels Against RTKs (c-Kit, RET, HER4) and AurA, CHK2 Kinases: AurA
# AurA, sequence (O14965 whole entry): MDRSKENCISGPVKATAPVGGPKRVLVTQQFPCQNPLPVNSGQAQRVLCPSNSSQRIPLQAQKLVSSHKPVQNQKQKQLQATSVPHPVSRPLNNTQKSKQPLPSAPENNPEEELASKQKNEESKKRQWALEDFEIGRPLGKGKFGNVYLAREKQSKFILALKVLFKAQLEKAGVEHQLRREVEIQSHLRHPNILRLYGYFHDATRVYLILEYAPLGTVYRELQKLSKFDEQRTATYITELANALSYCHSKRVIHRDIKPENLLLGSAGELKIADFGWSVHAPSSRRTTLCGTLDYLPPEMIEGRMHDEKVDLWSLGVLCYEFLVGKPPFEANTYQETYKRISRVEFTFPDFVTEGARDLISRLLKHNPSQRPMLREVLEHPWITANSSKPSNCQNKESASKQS
# Procedure, shortened: as §1
# ERK1 = ERK1 (Homo sapiens (Human), UniProt P27361); experiment: KINOMEscan competition binding assay (Kd); conditions: read-out: Kd Values Against MAPK Pathway Kinases: ERK1
# ERK1, sequence (P27361 whole entry): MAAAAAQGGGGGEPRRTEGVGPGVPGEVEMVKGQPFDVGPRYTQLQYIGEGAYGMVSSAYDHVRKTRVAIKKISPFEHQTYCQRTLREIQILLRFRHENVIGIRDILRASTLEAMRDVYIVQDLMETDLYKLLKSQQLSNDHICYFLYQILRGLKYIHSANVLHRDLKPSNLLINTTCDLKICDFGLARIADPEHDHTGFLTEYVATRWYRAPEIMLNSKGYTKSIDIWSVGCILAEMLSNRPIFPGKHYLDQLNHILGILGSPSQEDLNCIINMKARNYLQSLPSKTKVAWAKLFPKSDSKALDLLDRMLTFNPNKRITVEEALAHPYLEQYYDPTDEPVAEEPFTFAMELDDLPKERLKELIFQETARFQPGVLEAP
# BRAF (V600E) = BRAF (V600E) (Homo sapiens (Human), UniProt P15056, V600E); experiment: KINOMEscan competition binding assay (Kd); conditions: read-out: Kd Values Against MAPK Pathway Kinases: BRAF (V600E)
# BRAF (V600E), sequence (P15056 whole entry V600E, canonical isoform): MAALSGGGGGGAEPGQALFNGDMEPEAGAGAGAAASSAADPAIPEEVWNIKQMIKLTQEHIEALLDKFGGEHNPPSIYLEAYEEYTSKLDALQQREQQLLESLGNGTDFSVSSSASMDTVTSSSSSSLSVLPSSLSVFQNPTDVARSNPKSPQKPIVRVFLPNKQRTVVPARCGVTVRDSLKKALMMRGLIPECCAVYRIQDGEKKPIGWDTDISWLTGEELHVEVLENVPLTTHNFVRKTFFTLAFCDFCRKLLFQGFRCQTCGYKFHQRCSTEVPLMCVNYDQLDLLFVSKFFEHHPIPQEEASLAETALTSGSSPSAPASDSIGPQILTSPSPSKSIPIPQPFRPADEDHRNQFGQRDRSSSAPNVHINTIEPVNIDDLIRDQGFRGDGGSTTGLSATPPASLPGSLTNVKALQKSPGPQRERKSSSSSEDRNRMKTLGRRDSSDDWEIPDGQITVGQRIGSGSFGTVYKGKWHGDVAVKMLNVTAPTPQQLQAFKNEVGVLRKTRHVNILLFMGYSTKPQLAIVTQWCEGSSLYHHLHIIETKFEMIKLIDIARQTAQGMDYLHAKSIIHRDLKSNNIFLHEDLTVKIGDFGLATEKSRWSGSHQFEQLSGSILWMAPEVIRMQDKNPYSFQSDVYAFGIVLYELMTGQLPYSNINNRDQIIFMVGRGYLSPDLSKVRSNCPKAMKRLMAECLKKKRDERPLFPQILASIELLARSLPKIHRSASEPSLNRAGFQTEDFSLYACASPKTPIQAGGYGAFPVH
# MEK2 = MEK2 (Homo sapiens (Human), UniProt P36507); experiment: KINOMEscan competition binding assay (Kd); conditions: read-out: Kd Values Against MEK Kinases Isoforms: MEK2
# MEK2, sequence (P36507 whole entry, canonical isoform): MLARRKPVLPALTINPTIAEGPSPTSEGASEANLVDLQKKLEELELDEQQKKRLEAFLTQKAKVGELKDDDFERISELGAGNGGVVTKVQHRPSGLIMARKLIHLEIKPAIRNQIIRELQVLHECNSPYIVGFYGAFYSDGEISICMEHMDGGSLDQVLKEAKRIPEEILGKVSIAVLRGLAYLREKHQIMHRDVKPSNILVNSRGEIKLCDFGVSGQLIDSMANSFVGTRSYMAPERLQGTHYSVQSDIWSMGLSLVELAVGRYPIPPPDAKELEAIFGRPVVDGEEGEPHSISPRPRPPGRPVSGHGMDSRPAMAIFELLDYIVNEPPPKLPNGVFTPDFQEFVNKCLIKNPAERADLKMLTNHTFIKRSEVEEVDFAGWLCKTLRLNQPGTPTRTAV
# ERK2 = ERK2 (Homo sapiens (Human), UniProt P28482); experiment: KINOMEscan competition binding assay (Kd); conditions: read-out: Kd Values Against MAPK Pathway Kinases: ERK2
# ERK2, sequence (P28482 whole entry, canonical isoform): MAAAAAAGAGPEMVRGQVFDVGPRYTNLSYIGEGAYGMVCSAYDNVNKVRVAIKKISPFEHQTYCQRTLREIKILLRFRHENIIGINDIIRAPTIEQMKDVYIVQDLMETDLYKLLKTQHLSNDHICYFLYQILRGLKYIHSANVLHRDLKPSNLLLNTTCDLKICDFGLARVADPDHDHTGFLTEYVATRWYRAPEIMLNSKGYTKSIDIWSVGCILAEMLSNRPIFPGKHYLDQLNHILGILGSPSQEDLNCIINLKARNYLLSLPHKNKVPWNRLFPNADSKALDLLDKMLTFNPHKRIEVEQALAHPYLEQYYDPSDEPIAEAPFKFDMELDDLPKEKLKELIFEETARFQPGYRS
# MEK4 = MEK4 (Homo sapiens (Human), UniProt P45985); experiment: KINOMEscan competition binding assay (Kd); conditions: read-out: Kd Values Against MEK Kinases Isoforms: MEK4
# MEK3 = MEK3 (Homo sapiens (Human), UniProt P46734); experiment: KINOMEscan competition binding assay (Kd); conditions: read-out: Kd Values Against MEK Kinases Isoforms: MEK3
# MEK3, sequence (P46734 whole entry, canonical isoform): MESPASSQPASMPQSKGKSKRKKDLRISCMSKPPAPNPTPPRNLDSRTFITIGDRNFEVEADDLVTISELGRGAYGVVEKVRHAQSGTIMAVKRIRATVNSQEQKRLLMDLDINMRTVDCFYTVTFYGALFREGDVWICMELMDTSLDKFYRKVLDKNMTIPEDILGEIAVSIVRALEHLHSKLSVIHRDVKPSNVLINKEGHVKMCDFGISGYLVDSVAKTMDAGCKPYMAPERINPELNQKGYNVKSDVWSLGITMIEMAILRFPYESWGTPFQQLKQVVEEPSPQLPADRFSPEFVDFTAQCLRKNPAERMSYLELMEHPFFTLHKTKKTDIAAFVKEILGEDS
# CSK, sequence (P41240 whole entry): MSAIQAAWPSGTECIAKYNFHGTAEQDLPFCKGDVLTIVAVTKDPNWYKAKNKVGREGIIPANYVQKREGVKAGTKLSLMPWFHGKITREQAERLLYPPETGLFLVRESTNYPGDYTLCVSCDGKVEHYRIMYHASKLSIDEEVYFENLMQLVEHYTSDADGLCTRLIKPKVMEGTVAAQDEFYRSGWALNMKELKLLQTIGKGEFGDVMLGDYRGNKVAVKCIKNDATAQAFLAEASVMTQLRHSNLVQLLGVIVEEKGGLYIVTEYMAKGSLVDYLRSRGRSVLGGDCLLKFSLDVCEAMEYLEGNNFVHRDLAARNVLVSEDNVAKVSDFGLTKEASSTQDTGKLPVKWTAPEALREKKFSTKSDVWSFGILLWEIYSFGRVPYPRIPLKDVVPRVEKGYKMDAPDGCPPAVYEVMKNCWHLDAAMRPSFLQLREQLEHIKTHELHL
Compound,IC50 (CSK),IC50 (FRK),IC50 (ITK),IC50 (SRC),IC50 (AurA),Kd (ERK1),Kd (BRAF (V600E)),Kd (MEK2),Kd (ERK2),Kd (MEK4),Kd (MEK3)
Nc1ncnc2c1c(-c1ccc(Oc3ccccc3)cc1)nn2C[C@H]1SSC[C@@H]1O [43 B.],5 to 99 nM,5 to 99 nM,1000 to 10000 nM,100 to 999 nM,,,,,,,
Nc1ncnc2c1c(-c1ccc(Oc3ccccc3)cc1)nn2C[C@H]1SSC[C@H]1O [46 B.],,,,,100 to 999 nM,1000 to 10000 nM,1000 to 10000 nM,100 to 999 nM,1000 to 10000 nM,1000 to 10000 nM,1000 to 10000 nM
